# According to PMC6271245, “Discovery of Gramine Derivatives That Inhibit the Early Stage of EV71 Replication in Vitro” (Molecules, 2014):
# Test system: Enterovirus 71 (EV71)
# Assay: Inhibition of EV71-induced cytopathogenicity (CPE) in Vero cells, MTT
# Assay type: cell-based
# Details: Enterovirus A; concentration for 50% protection from virus-induced cytopathogenicity; Vero cells, 100 TCID50 EV71, 48 h, MTT; mean ± SD of three experiments; read-out: EC50 (µg/mL) Vero
# Procedure: (§1) The antiviral activities of gramine and its derivatives against EV71 based on inhibition of virus-induced cytopathogenicity effects (CPEs) in African green monkey kidney cells (Vero) and rhabdomyosarcoma cells (RD) were examined. The cytotoxic effects were also evaluated. The inhibitory activities expressed as half maximal effective concentration (EC50) values and selectivity indexes (SI) for the target compounds are presented in Table 1, and the dose-dependent antiviral effects are shown in Figure 1A.
# Figure 1 Gramine and its synthetic derivatives inhibited virus-induced CPE. (A) Vero cells were infected with 100 TCID50 of EV71 mixed with serial dilutions of tested compounds for 1.5 h at 37 °C; the inoculum was aspirated and cells were incubated with DMEM/tested compounds at 37 °C, 5% CO2 for 48 h pi. The viability of the cells was determined with an MTT assay; (B) Morphology image of Vero and RD cells treated with compounds 4a, 4i, 4r, and 4s for 48 h pi. (magnification, 20×).
# (§2) The activity of compounds against EV71 was determined based on the inhibition of virus-induced cytopathogenicity effects (CPEs) in acutely infected cells. Vero and RD cells grown to 90% confluency in 96-well dishes were washed with phosphate buffered saline (PBS) and infected with 100 TCID50 of EV71 mixed with serial dilutions of tested compounds for 1.5 h at 37 °C. The inoculum was aspirated and cells were incubated with DMEM and test compounds at 37 °C, 5% CO2 for 48 h. The CPEs were observed microscopically and the viability of the cells was determined with a 3-(4,5-dimethylthiazol-2-yl)-2,5-diphenyltetrazolium bromide (MTT) assay. The concentrations required for the test compounds to achieve 50% protection from virus-induced cytopathogenicity (EC50) were determined. Adverse effects of these compounds on the host cells were also assessed by means of the MTT-method; by exposing uninfected cells to various concentrations of test compounds for 48 h at 37 °C, the viability of the cells was detected. The 50% cell cytotoxic concentrations (CC50) of compounds were calculated with the SPSS software (SPSS, Chicago, IL, USA). Selectivity indexes were calculated as the ratio of CC50: EC50.
# (§3) Cell viability was assessed by an MTT assay, which functions based on the reduction of a MTT into formazan dye by active mitochondria. The cells were treated with 100 µL of MTT (1 mg/mL, Sigma, St. Louis, MO, USA) and incubated at 37 °C for 4 h. The reaction was blocked by DMSO and measured in a microplate reader (Bio-Tek Instruments, Winooski, VT, USA) at 492 nm. The untreated control was arbitrarily set as 100%.
row,SMILES,EC50
1,Cn1cc(C(Nc2ccccn2)c2ccc(Cl)cc2)c2ccccc21 (centres unmarked) [Compound 4g],4.9 ± 0.7 µg/mL
2,Clc1ccccc1C(Nc1nc2ccccc2s1)c1c[nH]c2ccccc12 (centres unmarked) [Compound 4p],2.1 ± 0.7 µg/mL
3,"NC(=O)c1ncn([C@@H]2O[C@H](CO)[C@@H](O)[C@H]2O)n1 [ribavirin, reference compound]",44.6 ± 13.5 µg/mL
4,Cn1cc(C(Nc2ccccn2)c2ccc(C(F)(F)F)cc2)c2ccccc21 (centres unmarked) [Compound 4k],13.2 ± 1.3 µg/mL
5,Cn1cc(C(Nc2ccccn2)c2ccccc2F)c2ccccc21 (centres unmarked) [Compound 4h],10.5 ± 2.1 µg/mL
6,Cn1cc(C(Nc2ccccn2)c2ccncc2)c2ccccc21 (centres unmarked) [Compound 4o],16.9 ± 1.5 µg/mL
7,Fc1ccccc1C(Nc1nc2ccccc2s1)c1c[nH]c2ccccc12 (centres unmarked) [Compound 4q],1.8 ± 1.1 µg/mL
8,Cn1cc(C(Nc2ccccn2)c2ccccc2Cl)c2ccccc21 (centres unmarked) [Compound 4f],14.4 ± 3.2 µg/mL

# Results, then the compound that gave them:
row,EC50,SMILES
1,5.6 ± 1.3 µg/mL,Clc1ccc(C(Nc2ccccn2)c2c[nH]c3ccccc23)cc1 (centres unmarked) [Compound 4c]
2,8.7 ± 2.9 µg/mL,FC(F)(F)c1ccc(C(Nc2ccccn2)c2c[nH]c3ccccc23)cc1 (centres unmarked) [Compound 4j]
3,1.9 ± 0.6 µg/mL,Fc1ccc(C(c2c[nH]c3ccccc23)n2cccn2)cc1 (centres unmarked) [Compound 4t]
4,2.3 ± 0.3 µg/mL,Fc1ccc(C(c2c[nH]c3ccccc23)n2cncn2)cc1 (centres unmarked) [Compound 4u]
5,9.2 ± 2.1 µg/mL,Fc1ccccc1C(Nc1ccccn1)c1c[nH]c2ccccc12 (centres unmarked) [Compound 4d]
6,5.1 ± 2.7 µg/mL,Clc1ccccc1C(Nc1ccccn1)c1c[nH]c2ccccc12 (centres unmarked) [Compound 4b]
7,7.3 ± 2.6 µg/mL,Fc1ccc(C(Nc2ccccn2)c2c[nH]c3ccccc23)cc1 (centres unmarked) [Compound 4e]

# Same assay, conditions: concentration for 50% protection from virus-induced cytopathogenicity; Vero cells, 100 TCID50 EV71, 48 h, MTT; mean ± SD of three experiments
row,SMILES,EC50 (µg/mL) Vero
1,Cn1cc(C(Nc2ccccn2)c2ccccn2)c2ccccc21 (centres unmarked) [Compound 4m],— (less than 50% inhibition)
2,CN(C)Cc1c[nH]c2ccccc12 [Gramine],— ^d (less than 50% inhibition)

# The next lines start with the values.
row,EC50 (µg/mL) Vero,SMILES
1,— (less than 50% inhibition),c1ccc(NC(c2ccccn2)c2c[nH]c3ccccc23)nc1 (centres unmarked) [Compound 4l]
2,— (less than 50% inhibition),c1ccc(NC(c2ccncc2)c2c[nH]c3ccccc23)nc1 (centres unmarked) [Compound 4n]

# Same assay, conditions: inhibition of EV71-induced CPEs compared with virus control
row,SMILES,anti-EV71 activity
1,CN(C)Cc1c[nH]c2ccccc12 [Gramine],not observed

# Test system: Enterovirus 71 (EV71)
# Assay: Inhibition of EV71-induced cytopathogenicity (CPE) in RD cells, MTT
# Assay type: cell-based
# Details: Enterovirus A; concentration for 50% protection from virus-induced cytopathogenicity; RD cells, 100 TCID50 EV71, 48 h, MTT; read-out: EC50 (µg/mL) RD
# Procedure: as §1, §2, §3
row,SMILES,EC50
1,Cn1cc(C(Nc2ccccn2)c2ccc(Cl)cc2)c2ccccc21 (centres unmarked) [Compound 4g],4.9 ± 1.2 µg/mL
2,Clc1ccccc1C(Nc1nc2ccccc2s1)c1c[nH]c2ccccc12 (centres unmarked) [Compound 4p],3.2 ± 0.4 µg/mL
3,"NC(=O)c1ncn([C@@H]2O[C@H](CO)[C@@H](O)[C@H]2O)n1 [ribavirin, reference compound]",32.1 µg/mL
4,Cn1cc(C(Nc2ccccn2)c2ccc(C(F)(F)F)cc2)c2ccccc21 (centres unmarked) [Compound 4k],9.8 ± 3.4 µg/mL
5,Cn1cc(C(Nc2ccccn2)c2ccccc2F)c2ccccc21 (centres unmarked) [Compound 4h],11.2 ± 4.6 µg/mL
6,Cn1cc(C(Nc2ccccn2)c2ccncc2)c2ccccc21 (centres unmarked) [Compound 4o],9.5 ± 1.7 µg/mL
7,Fc1ccccc1C(Nc1nc2ccccc2s1)c1c[nH]c2ccccc12 (centres unmarked) [Compound 4q],2.7 ± 1.2 µg/mL

# Next, values leading:
row,EC50,SMILES
1,6.7 ± 0.8 µg/mL,Clc1ccc(C(Nc2ccccn2)c2c[nH]c3ccccc23)cc1 (centres unmarked) [Compound 4c]
2,8.3 ± 3.5 µg/mL,FC(F)(F)c1ccc(C(Nc2ccccn2)c2c[nH]c3ccccc23)cc1 (centres unmarked) [Compound 4j]
3,2.6 ± 0.8 µg/mL,Fc1ccc(C(c2c[nH]c3ccccc23)n2cccn2)cc1 (centres unmarked) [Compound 4t]
4,3.1 ± 1.3 µg/mL,Fc1ccc(C(c2c[nH]c3ccccc23)n2cncn2)cc1 (centres unmarked) [Compound 4u]
5,5.8 ± 1.4 µg/mL,Fc1ccccc1C(Nc1ccccn1)c1c[nH]c2ccccc12 (centres unmarked) [Compound 4d]
6,7.4 ± 1.1 µg/mL,Clc1ccccc1C(Nc1ccccn1)c1c[nH]c2ccccc12 (centres unmarked) [Compound 4b]
7,6.2 ± 2.8 µg/mL,Fc1ccc(C(Nc2ccccn2)c2c[nH]c3ccccc23)cc1 (centres unmarked) [Compound 4e]

# Same assay, conditions: concentration for 50% protection from virus-induced cytopathogenicity; RD cells, 100 TCID50 EV71, 48 h, MTT
row,SMILES,EC50 (µg/mL) RD
1,Cn1cc(C(Nc2ccccn2)c2ccccn2)c2ccccc21 (centres unmarked) [Compound 4m],— (less than 50% inhibition)
2,CN(C)Cc1c[nH]c2ccccc12 [Gramine],— (less than 50% inhibition)
3,Cn1cc(C(Nc2ccccn2)c2ccccc2Cl)c2ccccc21 (centres unmarked) [Compound 4f],— (less than 50% inhibition)

# Further lines, results first:
row,EC50 (µg/mL) RD,SMILES
1,— (less than 50% inhibition),c1ccc(NC(c2ccccn2)c2c[nH]c3ccccc23)nc1 (centres unmarked) [Compound 4l]
2,— (less than 50% inhibition),c1ccc(NC(c2ccncc2)c2c[nH]c3ccccc23)nc1 (centres unmarked) [Compound 4n]

# Test system: not listed separately
# Assay: Cytotoxicity on uninfected Vero cells, MTT
# Assay type: cell-based
# Details: African green monkey
# Procedure: as §1, §2, §3
row,SMILES,CC50 at 48 h
1,"NC(=O)c1ncn([C@@H]2O[C@H](CO)[C@@H](O)[C@H]2O)n1 [ribavirin, reference compound]",> 500 µg/mL
2,CN(C)Cc1c[nH]c2ccccc12 [Gramine],101 ± 5.6 µg/mL

# Same assay, conditions: African green monkey; concentration reducing cell viability by 50%; uninfected Vero cells, 48 h, MTT; read-out: CC50 (µg/mL) Vero
row,SMILES,CC50 at 48 h
1,Clc1ccc(C(Nc2ccccn2)c2c[nH]c3ccccc23)cc1 (centres unmarked) [Compound 4c],22.4 ± 3.6 µg/mL
2,FC(F)(F)c1ccc(C(Nc2ccccn2)c2c[nH]c3ccccc23)cc1 (centres unmarked) [Compound 4j],15.8 ± 3.3 µg/mL
3,Cn1cc(C(Nc2ccccn2)c2ccc(Cl)cc2)c2ccccc21 (centres unmarked) [Compound 4g],38.6 ± 5.7 µg/mL
4,Clc1ccccc1C(Nc1nc2ccccc2s1)c1c[nH]c2ccccc12 (centres unmarked) [Compound 4p],6.6 ± 1.4 µg/mL
5,Cn1cc(C(Nc2ccccn2)c2ccccn2)c2ccccc21 (centres unmarked) [Compound 4m],> 200 µg/mL
6,Fc1ccc(C(c2c[nH]c3ccccc23)n2cccn2)cc1 (centres unmarked) [Compound 4t],10.5 ± 2.4 µg/mL
7,c1ccc(NC(c2ccccn2)c2c[nH]c3ccccc23)nc1 (centres unmarked) [Compound 4l],96.2 ± 15.5 µg/mL
8,Fc1ccc(C(c2c[nH]c3ccccc23)n2cncn2)cc1 (centres unmarked) [Compound 4u],4.9 ± 0.6 µg/mL
9,Cn1cc(C(Nc2ccccn2)c2ccc(C(F)(F)F)cc2)c2ccccc21 (centres unmarked) [Compound 4k],18.5 ± 4.8 µg/mL
10,Cn1cc(C(Nc2ccccn2)c2ccccc2F)c2ccccc21 (centres unmarked) [Compound 4h],89.3 ± 12.6 µg/mL
11,Fc1ccccc1C(Nc1ccccn1)c1c[nH]c2ccccc12 (centres unmarked) [Compound 4d],37.8 ± 5.8 µg/mL
12,Clc1ccccc1C(Nc1ccccn1)c1c[nH]c2ccccc12 (centres unmarked) [Compound 4b],18.6 ± 1.4 µg/mL
13,Fc1ccc(C(Nc2ccccn2)c2c[nH]c3ccccc23)cc1 (centres unmarked) [Compound 4e],40.7 ± 2.5 µg/mL
14,c1ccc(NC(c2ccncc2)c2c[nH]c3ccccc23)nc1 (centres unmarked) [Compound 4n],121 ± 20.5 µg/mL
15,Cn1cc(C(Nc2ccccn2)c2ccncc2)c2ccccc21 (centres unmarked) [Compound 4o],72.8 ± 18.8 µg/mL
16,Fc1ccccc1C(Nc1nc2ccccc2s1)c1c[nH]c2ccccc12 (centres unmarked) [Compound 4q],10.8 ± 2.5 µg/mL
17,Cn1cc(C(Nc2ccccn2)c2ccccc2Cl)c2ccccc21 (centres unmarked) [Compound 4f],86.4 ± 7.4 µg/mL

# Test system: not listed separately
# Assay: Cytotoxicity on uninfected RD cells, MTT
# Assay type: cell-based
# Details: human, concentration reducing cell viability by 50%
# Procedure: Human RD cells and Vero cells were maintained in Dulbecco’s modified Eagle’s medium (Gibco-Invitrogen, Carlsbad, CA, USA) supplemented with 10% fetal bovine serum (FBS; Gibco), 100 U/mL of penicillin and streptomycin, and 2 mM L-glutamine. Enterovirus 71 (EV71) was kindly provided by Zhanqiu Yang (Institute of Medical Virology, School of Medicine, Wuhan University, China) and propagated in RD cell lines. The virus titer was determined by the standard method of median tissue culture infective dose (TCID50) on RD cells.
# as §2, §3
row,SMILES,CC50 at 48 h
1,Clc1ccc(C(Nc2ccccn2)c2c[nH]c3ccccc23)cc1 (centres unmarked) [Compound 4c],24.6 ± 3.5 µg/mL
2,FC(F)(F)c1ccc(C(Nc2ccccn2)c2c[nH]c3ccccc23)cc1 (centres unmarked) [Compound 4j],17.8 ± 2.6 µg/mL
3,Cn1cc(C(Nc2ccccn2)c2ccc(Cl)cc2)c2ccccc21 (centres unmarked) [Compound 4g],32 ± 1.8 µg/mL
4,Clc1ccccc1C(Nc1nc2ccccc2s1)c1c[nH]c2ccccc12 (centres unmarked) [Compound 4p],11.7 ± 4.6 µg/mL
5,"NC(=O)c1ncn([C@@H]2O[C@H](CO)[C@@H](O)[C@H]2O)n1 [ribavirin, reference compound]",436 µg/mL
6,Cn1cc(C(Nc2ccccn2)c2ccccn2)c2ccccc21 (centres unmarked) [Compound 4m],> 200 µg/mL
7,Fc1ccc(C(c2c[nH]c3ccccc23)n2cccn2)cc1 (centres unmarked) [Compound 4t],12.6 ± 3.5 µg/mL
8,c1ccc(NC(c2ccccn2)c2c[nH]c3ccccc23)nc1 (centres unmarked) [Compound 4l],65.2 ± 9.1 µg/mL
9,Fc1ccc(C(c2c[nH]c3ccccc23)n2cncn2)cc1 (centres unmarked) [Compound 4u],6.8 ± 2.5 µg/mL
10,Cn1cc(C(Nc2ccccn2)c2ccc(C(F)(F)F)cc2)c2ccccc21 (centres unmarked) [Compound 4k],27.6 ± 8.3 µg/mL
11,Cn1cc(C(Nc2ccccn2)c2ccccc2F)c2ccccc21 (centres unmarked) [Compound 4h],52.2 ± 8.3 µg/mL
12,Fc1ccccc1C(Nc1ccccn1)c1c[nH]c2ccccc12 (centres unmarked) [Compound 4d],28 ± 5.2 µg/mL
13,Clc1ccccc1C(Nc1ccccn1)c1c[nH]c2ccccc12 (centres unmarked) [Compound 4b],22.8 ± 1.7 µg/mL
14,Fc1ccc(C(Nc2ccccn2)c2c[nH]c3ccccc23)cc1 (centres unmarked) [Compound 4e],29.5 ± 3.3 µg/mL
15,c1ccc(NC(c2ccncc2)c2c[nH]c3ccccc23)nc1 (centres unmarked) [Compound 4n],> 200 µg/mL
16,Cn1cc(C(Nc2ccccn2)c2ccncc2)c2ccccc21 (centres unmarked) [Compound 4o],39.2 ± 11.6 µg/mL
17,Fc1ccccc1C(Nc1nc2ccccc2s1)c1c[nH]c2ccccc12 (centres unmarked) [Compound 4q],14.5 ± 3.6 µg/mL
18,CN(C)Cc1c[nH]c2ccccc12 [Gramine],85 ± 16.3 µg/mL
19,Cn1cc(C(Nc2ccccn2)c2ccccc2Cl)c2ccccc21 (centres unmarked) [Compound 4f],44 ± 5.1 µg/mL
